The viscosity is the internal friction of a fluid under shear. One may read the mass density as mass per unit of volume.

Numbers after ± are expanded uncertainties.

For data set [1] the following is noted: 298.15 K, Liquid; for viscosity: Capillary tube (Ostwald / Ubbelohde) method.
The conditions of data set [2]: 298.15 K; 101.7 kPa; Liquid mixture 1; Pendant drop shape.

For the compound `Cc1ccccc1` [toluene], in data set [1] (101 kPa), the viscosity is 0.554 ± 0.04 mPa·s. Besides, the mass density in data set [1] (101.7 kPa, Vibrating tube method) stood at 860.8 ± 2 kg/m3.

In the case of `Cc1ccccc1` [toluene] + O, the interfacial tension in data set [2] turned out to be 36.2 ± 3.6 mN/m.

Consider `O` [water], for which, in data set [1] (101.7 kPa), the viscosity turned out to be 0.8958 ± 0.041 mPa·s.

The record behind these values is the NIST ThermoML archive (doi:10.1021/acs.jced.7b00505).
